How the values were obtained:
[1] = test system: Rhizopus delemar melanin production; conditions: cited from earlier work
[2] = test system: R. delemar tyrosinase enzyme activity; format: cell-based, Rhizopus delemar; conditions: 10 μg/ml, 3 days, protein extract with 10 mM L-DOPA
[3] = test system: Rhizopus delemar; test: Growth; format: cell-based; conditions: kojic acid 50 μg/ml, 3 days

| Structure (SMILES) | Reduction of melanin production from R. delemar [1] | Inhibitory effect on melanin biosynthesis (tyrosinase activity) of R. delemar [2] | Effect on growth of fungal hyphae [3] |
| --- | --- | --- | --- |
| CC(C)c1ccc(C=O)cc1 [Cuminaldehyde, cuminaldehyde] | causes reduction of melanin production | highest | – |
| O=c1cc(CO)occ1O [Kojic acid] | – | highest | significant reduction in the growth of fungal hyphae |
